One assay has as its target T1, rat TRPV1 (Rattus norvegicus, UniProt O35433).
T1 construct: expressed in transfected cells; host or cells: HEK293
The assay is described as follows: Assay for inhibitory activity against VR1 patch clamp activity (capsaicin current, inside-out patch). The format is cell-based. The following applies: 1 μM compound with 10 μM capsaicin; rat TRPV1-transfected HEK293, inside-out patch; relative to capsaicin current before compound. How it is done:
Each of the compounds synthesized in the examples were dissolved in dimethyl sulfoxide (DMSO) at a concentration of 10 mM. For use in the assay for inhibitory activity against patch clamp activity, the solutions were diluted to a concentration of 1 μM with the same physiological saline as in the pipette solution of Table 1, below.
2) Assay for Inhibitory Activity Against VR1 Patch Clamp Activity
In this experiment, changes in VR1 activity were recorded in current using an electrophysiological technique.
For use in this experiment, a rat TRPV1 cDNA was transfected into a subcultured HEK293 strain with the aid of lipofectamin.
The rat TRPV1 gene-transfected HEK293 cells were detached from the cell culture dishes with trypsin and distributed on a patch clamp recording chamber.
A cover glass slip on the bottom of the patch clamp recording chamber was treated for 15 min or longer with a […] poly-L-lysine solution so that the HEK cells would readily adhere thereto. Cellular membranes were ruptured at room temperature (˜25° C.) from randomly selected HEK cells to perform an inside-out patch clamp technique. 10 μM of capsaicin was fed into the chamber (cytoplasmic side) to activate a capsaicin current through the VR1. When the capsaicin current reached a stable stage, each compound was added along with 10 μM of capsaicin to record the inhibitory activity of the compounds with regard to the current. The inhibition was expressed as percentages.
Detected current was amplified using a Digidata 1200B A/D converter and an Axopatch 1D amplifier (Axon instruments Inc.), and the data were recorded and analyzed with the aid of a computer. The inhibitory activity of each compound was expressed as a percentage relative to the capsaicin current immediately before the administration of each compound.

The next assay has as its target T2, human vanilloid-1 (hVR1) (Homo sapiens, UniProt Q8NER1).
T2 construct: expressed in transfected cells; host or cells: HEK293 Tet-on (hVR1-HEK293), doxycycline-induced
The assay is described as follows: Calcium influx of vanilloid receptor in hVR1-HEK293 cells (capsaicin-induced, Fluo-3/AM). The following applies: 1 μM capsaicin-induced intracellular calcium influx, read-out: Inhibitory Activity IC50. The format is cell-based. Summed up:
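HEK293 Tet-on cells expressing human VR1 were induced with deoxycycline and loaded with Fluo-3/AM for 90 min at 37 °C. Cells were given test compound at several concentrations, then stimulated with 1 μM capsaicin. Inhibition of the calcium fluorescence signal was fitted with the Hill equation.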

The subject of assay [1] is ICR male mice (PBQ-induced writhing). The experiment in a line: PBQ-induced writhing test for analgesic effect. In kind it is in vivo. The conditions noted are these: Mus musculus, 1 h, 20 mg/kg oral, one hour before intraabdominal PBQ (0.02%), read-out: % Inhibition (decrease in number of writhes compared to control). Here is the method:
A PBQ-induced writhing test was conducted in mice to assay for the analgesic effect of the novel compounds. Five-week-old ICR male mice were treated with PBQ (phenyl-p-quinone, 0.02%). A suspension of 20 mg of test material in 10 mL of physiological saline was used per kg of weight of mice. Test materials in combination with a carrier were orally administered one hour before the intraabdominal injection of PBQ in a dose of 10 mL per kg weight. From 5 min after the injection, individual mice in each test group were measured for numbers of writhes at regular intervals of 10 min. Analgesic effects of test compounds were expressed as percentages of the decrease in number of writhes compared to a control. [% Inhibition=(Control administered with carrier alone−Group administered with test material)/control administered with carrier alone×100]

T1 sequence (O35433 whole entry): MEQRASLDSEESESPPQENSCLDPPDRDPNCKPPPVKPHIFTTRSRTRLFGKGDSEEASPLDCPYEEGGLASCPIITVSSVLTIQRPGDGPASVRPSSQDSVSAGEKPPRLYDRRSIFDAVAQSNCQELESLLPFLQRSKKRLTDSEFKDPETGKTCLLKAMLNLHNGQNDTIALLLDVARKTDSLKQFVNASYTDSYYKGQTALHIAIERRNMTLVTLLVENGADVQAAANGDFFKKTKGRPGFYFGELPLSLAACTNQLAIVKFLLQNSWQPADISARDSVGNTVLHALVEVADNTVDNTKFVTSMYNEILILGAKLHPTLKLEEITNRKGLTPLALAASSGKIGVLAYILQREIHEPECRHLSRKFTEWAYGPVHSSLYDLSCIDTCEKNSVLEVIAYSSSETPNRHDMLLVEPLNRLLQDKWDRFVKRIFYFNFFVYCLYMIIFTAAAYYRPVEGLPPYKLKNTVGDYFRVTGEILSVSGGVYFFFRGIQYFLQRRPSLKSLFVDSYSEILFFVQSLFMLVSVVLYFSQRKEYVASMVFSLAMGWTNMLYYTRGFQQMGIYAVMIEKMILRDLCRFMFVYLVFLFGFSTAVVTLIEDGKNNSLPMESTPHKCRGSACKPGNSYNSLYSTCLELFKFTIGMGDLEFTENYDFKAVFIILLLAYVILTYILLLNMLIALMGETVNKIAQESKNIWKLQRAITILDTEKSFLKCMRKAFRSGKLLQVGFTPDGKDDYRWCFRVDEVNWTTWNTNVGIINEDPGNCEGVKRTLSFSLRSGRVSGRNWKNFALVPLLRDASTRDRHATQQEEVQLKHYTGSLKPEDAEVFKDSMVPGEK
T2 sequence (Q8NER1 whole entry): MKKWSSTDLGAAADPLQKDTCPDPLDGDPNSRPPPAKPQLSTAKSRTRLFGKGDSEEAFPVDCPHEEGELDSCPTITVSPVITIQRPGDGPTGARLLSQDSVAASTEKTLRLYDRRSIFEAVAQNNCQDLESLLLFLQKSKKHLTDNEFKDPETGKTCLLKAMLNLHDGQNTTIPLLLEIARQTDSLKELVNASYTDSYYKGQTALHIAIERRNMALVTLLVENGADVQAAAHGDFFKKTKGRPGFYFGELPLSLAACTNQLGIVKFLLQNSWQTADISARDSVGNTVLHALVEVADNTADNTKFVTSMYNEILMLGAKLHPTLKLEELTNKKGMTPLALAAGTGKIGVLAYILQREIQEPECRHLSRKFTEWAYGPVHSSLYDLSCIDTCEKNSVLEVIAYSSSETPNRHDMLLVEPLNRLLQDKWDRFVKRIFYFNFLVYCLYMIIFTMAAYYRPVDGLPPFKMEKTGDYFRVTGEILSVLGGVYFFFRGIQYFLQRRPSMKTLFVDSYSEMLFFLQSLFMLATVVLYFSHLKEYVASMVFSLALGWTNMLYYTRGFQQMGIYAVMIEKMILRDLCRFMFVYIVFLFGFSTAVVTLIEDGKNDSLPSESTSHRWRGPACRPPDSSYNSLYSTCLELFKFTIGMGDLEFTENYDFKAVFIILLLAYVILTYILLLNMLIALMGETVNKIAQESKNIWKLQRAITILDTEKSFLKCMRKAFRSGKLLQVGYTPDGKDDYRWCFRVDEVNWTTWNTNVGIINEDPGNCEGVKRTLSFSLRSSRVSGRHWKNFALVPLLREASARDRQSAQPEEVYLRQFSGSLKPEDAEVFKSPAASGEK

As to `FC(F)(F)c1cc(C(F)(F)F)c2nc(-c3ccc(-c4ncccc4C(F)(F)F)cn3)[nH]c2c1` [Compound 162, 6′-(4,6-bistrifluoromethyl-1H-benzoimidazole-2-yl)-3-trifluoromethyl-[2,3′]bipyridine], the inhibition at 1 µM against rat TRPV1 amounted to 99%. For the same molecule, the IC50 at human vanilloid-1 (hVR1) stood at 14 nM. In addition, in assay [1], the inhibition in vivo at 20 mg/kg came to 28%.
